Assay [1] concerns the target Glutamate receptor ionotropic, AMPA (Mus musculus, UniProt P23818+P23819+Q9Z2W8+Q9Z2W9).
Description: Compound was tested for binding affinity against Ionotropic glutamate receptor AMPA using [3H]AMPA as a radioligand.
The test system of assay [2] is Mus musculus. Briefly: In vivo AMPA antagonistic activity was determined by measuring ability to antagonize AMPA induced lethal convulsions in mice at 60 min upon intraperitoneal administration. The assay is classed as functional. The settings on record: ip, 1 h.
In assay [3] the test system is Mus musculus. Kind of assay: In vivo AMPA antagonistic activity was determined by measuring ability to antagonize AMPA induced lethal convulsions in mice at 15 min upon intraperitoneal administration. In kind it is functional. The conditions noted are these: ip, 0.25 h.

Regarding `Oc1nc2cc(C(F)(F)F)cc(-n3cccc3)c2nc1O`, the Ki – broadly, the dissociation constant of the complex between target and ligand, obtained from inhibition or displacement – in assay [1] was greater than 25 µM.
Regarding `O=C(O)Cn1c(=O)c(=O)[nH]c2cc(C(F)(F)F)c(-n3cccc3)cc21`, the ED50 in the assay on Mus musculus [2] and in the assay with Mus musculus [3] was greater than 50 mg/kg throughout. Further, the Ki in assay [1] was determined as 0.17 µM.
In the case of `O=[N+]([O-])c1cc2nc(O)c(O)nc2cc1-n1cccc1`, the ED50 – broadly, the dose that gives a 50% effect, or the effect in half of the subjects – in the assay with Mus musculus [2] turned out to be 31 mg/kg; with Mus musculus [3], 21 mg/kg. This molecule returned a Ki in assay [1] of 0.4 µM.
On to `Oc1nc2cc(-n3cccc3)c(C(F)(F)F)cc2nc1O`, for which the Ki in assay [1] was 3 µM.
With `O=C(O)Cn1c(=O)c(=O)[nH]c2cc([N+](=O)[O-])c(-n3cccc3)cc21`, the ED50 with Mus musculus [2] and in the assay with Mus musculus [3] was 30 mg/kg in each case. The Ki in assay [1] was determined as 0.07 µM.
Turning to `O=C(O)CCn1c(=O)c(=O)[nH]c2cc([N+](=O)[O-])c(-n3cccc3)cc21`, the ED50 with Mus musculus [2] and with Mus musculus [3] was greater than 30 mg/kg throughout. Further, the Ki in assay [1] worked out at 0.33 µM.
`Oc1nc2cc(Cl)c(-n3cccc3)cc2nc1O` displayed a Ki in assay [1] of 20 µM.
The molecule `COC(=O)Cn1c(=O)c(=O)[nH]c2cc(C(F)(F)F)c(-n3cccc3)cc21` came in with a Ki in assay [1] greater than 25 µM.
On to `O=c1[nH]c2cc(-n3cccc3)c([N+](=O)[O-])cc2n(C2CCCCC2)c1=O`, for which the affinity in assay [1], expressed as Ki, was 25 µM.
As for `CNC(=O)Cn1c(=O)c(=O)[nH]c2cc(C(F)(F)F)c(-n3cccc3)cc21`, the affinity in assay [1], expressed as Ki, was 20 µM.
Molecule `CCOC(=O)CCn1c(=O)c(=O)[nH]c2cc(C(F)(F)F)c(-n3cccc3)cc21` gave a Ki in assay [1] of 0.58 µM.
The molecule `CCNC(=O)Cn1c(=O)c(=O)[nH]c2cc([N+](=O)[O-])c(-n3cccc3)cc21` displayed a Ki in assay [1] of 2.7 µM.
In turn, `O=c1[nH]c2cc([N+](=O)[O-])c(-n3cccc3)cc2n(C2CC2)c1=O` displayed a Ki in assay [1] of 3.5 µM.
As for `CCn1c(=O)c(=O)[nH]c2cc([N+](=O)[O-])c(-n3cccc3)cc21`, the ED50 with Mus musculus [2] is 12 mg/kg; with Mus musculus [3], greater than 50 mg/kg. Moreover, the affinity in assay [1], expressed as Ki, was 0.85 µM.
Regarding `O=C(O)CCn1c(=O)c(=O)[nH]c2cc(C(F)(F)F)c(-n3cccc3)cc21`, the ED50 in the assay on Mus musculus [2] and in the assay with Mus musculus [3] was greater than 50 mg/kg throughout. In assay [1], this molecule yielded a Ki of 0.39 µM.
For the molecule `O=c1[nH]c2cc(C(F)(F)F)c(-n3cccc3)cc2n(C2CCCCC2)c1=O`, the Ki in assay [1] was 1.6 µM. This lies in the single-digit micromolar range.
In the case of `O=c1[nH]c2cc([N+](=O)[O-])c(-n3cccc3)cc2n(C2CCCCC2)c1=O`, the figures for the ED50 in the assay with Mus musculus [2] and in the assay on Mus musculus [3] were 22 mg/kg and greater than 50 mg/kg, respectively. In assay [1], this molecule had a Ki of 0.4 µM.
On to `CS(=O)(=O)c1cc2[nH]c(=O)c(=O)n(C3CCCCC3)c2cc1-n1cccc1`, for which the Ki in assay [1] worked out at 15 µM.
The same measure, in the same setting: the result for `O=C(Cn1c(=O)c(=O)[nH]c2cc([N+](=O)[O-])c(-n3cccc3)cc21)NCc1ccccc1` reads 20 µM.
The same measure, in the same setting: the value for `O=c1[nH]c2cc(Cl)c(-n3cccc3)cc2n(C2CCCCC2)c1=O` was 10 µM; that for `O=C(Cn1c(=O)c(=O)[nH]c2cc([N+](=O)[O-])c(-n3cccc3)cc21)Nc1ccccc1` was 2.1 µM.
Consider `CCOC(=O)Cn1c(=O)c(=O)[nH]c2cc([N+](=O)[O-])c(-n3cccc3)cc21`, for which the results for the ED50 in the assay with Mus musculus [2] and with Mus musculus [3] were 26 mg/kg and greater than 50 mg/kg, respectively. For the same molecule, in assay [1], the Ki was found to be 0.91 µM.
Regarding `CCC(CC)Cn1c(=O)c(=O)[nH]c2cc([N+](=O)[O-])c(-n3cccc3)cc21`, the affinity in assay [1] corresponds to a Ki of 6 µM.
As to `CCOC(=O)CCn1c(=O)c(=O)[nH]c2cc([N+](=O)[O-])c(-n3cccc3)cc21`, the ED50 is 14 mg/kg with Mus musculus [2] and greater than 30 mg/kg in the assay on Mus musculus [3]. Further, the Ki in assay [1] worked out at 0.26 µM.
Molecule `O=C(CCn1c(=O)c(=O)[nH]c2cc(C(F)(F)F)c(-n3cccc3)cc21)NCc1ccccc1` displayed a Ki in assay [1] of 8 µM.
On the same count and under the same terms, the result for `O=C(Cn1c(=O)c(=O)[nH]c2cc([N+](=O)[O-])c(-n3cccc3)cc21)NCCc1ccccc1` reads 20 µM.
Turning to `NS(=O)(=O)c1cccc2c1c([N+](=O)[O-])cc1nc(O)c(O)nc12` [NBQX], the ED50 in the assay with Mus musculus [2] and in the assay on Mus musculus [3] was greater than 50 mg/kg each time.

The record behind these values is ChEMBL document CHEMBL1128942, “Pyrrolylquinoxalinediones: A new class of AMPA receptor antagonists” (Bioorg Med Chem Lett, 1996).
